Results from patent US6706663B2, “Herbicidal 3-heterocyclic substituted benzisothiazole and benzisoxazole compounds” (Wyeth, priority 2000, dated 2004).

What was measured:
[1] = test system: AMBEL (Ambrosia artemisifolia); experiment: Postemergence herbicidal evaluation; type: in vivo, L.; conditions: for AMBEL herbicidal rating: postemergence
In short: (§1)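 Seedlings grown for about two weeks were sprayed postemergence and then kept under standard greenhouse care. Injury was rated visually 4–5 weeks after treatment on a 0–9 scale against untreated controls, and ratings from repeat tests were averaged.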

[2] = test system: CASOB (Cassia obtusifolia); experiment: Postemergence herbicidal evaluation; type: in vivo, L.; conditions: for CASOB herbicidal rating: postemergence
In short: as §1

[3] = test system: CHEAL (Chenopodium album); experiment: Postemergence herbicidal evaluation; type: in vivo, L.; conditions: for CHEAL herbicidal rating: postemergence
In short: as §1

[4] = test system: TRZAWR (Wheat, Winter, cv Riband); experiment: Postemergence herbicidal evaluation; type: in vivo, Triticum aestivum; conditions: for TRZAWR herbicidal rating: postemergence
In short: as §1

[5] = test system: ABUTH (Abutilon theophrasti); experiment: Preemergence herbicidal evaluation; type: in vivo, Medic.; conditions: rated 4-5 weeks after treatment
[6] = test system: GLXMAW (Soybean, Williams); experiment: Preemergence herbicidal evaluation; type: in vivo, Glycine max, (L.) Merr. cv Williams; conditions: rated 4-5 weeks after treatment
[7] = test system: TRZAWR (Wheat, Winter, cv Riband); experiment: Preemergence herbicidal evaluation; type: in vivo, Triticum aestivum; conditions: rated 4-5 weeks after treatment
In short: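 Seeds mixed with potting soil were planted atop about one inch of soil, then sprayed with test compound in aqueous acetone. Cups were kept in the greenhouse and rated visually 4–5 weeks after treatment on a 0–9 scale against untreated control.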

ZEAMX (Corn, Field) = experiment: Preemergence herbicidal evaluation; type: in vivo, Zea mays, L.; conditions: rated 4-5 weeks after treatment
[8] = test system: CYPSE (Cyperus serotinus); experiment: Flooded paddy, preemergence weed control; type: in vivo, Rottb.; conditions: rated 3-4 weeks after treatment, 0-9 rating scale
In short: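 Seeds or propagules were planted 0.5 cm deep in silt loam and flooded to 1.5–3 cm. Compounds in 50/50 v/v aqueous/acetone were pipetted into the flood water at about 0.0080 to 0.1250 kg/ha. After 3–4 weeks in the greenhouse, effect was rated visually on a 0–9 scale versus untreated control.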

| Structure (SMILES) | AMBEL herbicidal rating ([1]; rate 0.0320 kg/ha) | AMBEL herbicidal rating ([1]; rate 0.0620 kg/ha) | CASOB herbicidal rating ([2]; rate 0.0320 kg/ha) | CASOB herbicidal rating ([2]; rate 0.0620 kg/ha) | CHEAL herbicidal rating ([3]; rate 0.0320 kg/ha) | CHEAL herbicidal rating ([3]; rate 0.0620 kg/ha) | Preemergence herbicidal rating ABUTH ([5]; Rate 0.0620 kg/ha) | Preemergence herbicidal rating ABUTH ([5]; Rate 0.1250 kg/ha) | Preemergence herbicidal rating ABUTH ([5]; Rate 0.2500 kg/ha) | Preemergence herbicidal rating GLXMAW ([6]; Rate 0.0620 kg/ha) | Preemergence herbicidal rating GLXMAW ([6]; Rate 0.1250 kg/ha) | Preemergence herbicidal rating GLXMAW ([6]; Rate 0.2500 kg/ha) | Preemergence herbicidal rating TRZAWR ([7]; Rate 0.0620 kg/ha) | Preemergence herbicidal rating TRZAWR ([7]; Rate 0.1250 kg/ha) | Preemergence herbicidal rating TRZAWR ([7]; Rate 0.2500 kg/ha) | Preemergence herbicidal rating ZEAMX (ZEAMX (Corn, Field); Rate 0.0620 kg/ha) | Preemergence herbicidal rating ZEAMX (ZEAMX (Corn, Field); Rate 0.1250 kg/ha) | Preemergence herbicidal rating ZEAMX (ZEAMX (Corn, Field); Rate 0.2500 kg/ha) | herbicidal rating, CYPSE ([8]; rate 0.0320 kg/ha) | herbicidal rating, CYPSE ([8]; rate 0.1250 kg/ha) | further results |
| --- | --- | --- | --- | --- | --- | --- | --- | --- | --- | --- | --- | --- | --- | --- | --- | --- | --- | --- | --- | --- | --- |
| CC1CC(C)(C)OC(c2nsc3ccc(-n4c(=O)cc(C(F)(F)F)n(C)c4=O)cc23)O1 (centres unmarked) [Compound 55, 1-methyl-6-(trifluoromethyl)-3-[3-(4,4,6-trimethyl-m-dioxan-2-yl)-1,2-benzisothiazol-5-yl]uracil] | 9.0 | 9.0 | 2.0 | 1.0 | 5.0 | 4.0 | 9.0 | 9.0 | 9.0 | 6.5 | 8.0 | 9.0 | 8.0 | 9.0 | 9.0 | 8.0 | 9.0 | 8.0 | 9.0 | 9.0 | TRZAWR herbicidal rating ([4]; rate 0.0320 kg/ha): 3.0; TRZAWR herbicidal rating ([4]; rate 0.0620 kg/ha): 5.0 |
| Cn1c(C(F)(F)F)cc(=O)n(-c2ccc3snc(C4(C)OCCO4)c3c2)c1=O [Compound 54, 1-methyl-3-[3-(2-methyl-1,3-dioxolan-2-yl)-1,2-benzisothiazol-5-yl]-6-(trifluoromethyl)uracil] | 9.0 | 9.0 | 2.0 | 9.0 | 5.0 | 9.0 | 9.0 | 9.0 | 9.0 | 9.0 | 9.0 | 9.0 | 9.0 | 9.0 | 9.0 | 8.0 | 8.5 | 9.0 | 9.0 | 9.0 | AMBEL herbicidal rating ([1]; rate 0.1250 kg/ha): 9.0; CASOB herbicidal rating ([2]; rate 0.1250 kg/ha): 9.0; CHEAL herbicidal rating ([3]; rate 0.1250 kg/ha): 9.0; TRZAWR herbicidal rating ([4]; rate 0.0320 kg/ha): 5.0; TRZAWR herbicidal rating ([4]; rate 0.0620 kg/ha): 6.5; TRZAWR herbicidal rating ([4]; rate 0.1250 kg/ha): 7.5 |
| C[C@@H]1C[C@H](C)OC(c2nsc3ccc(-n4c(=O)cc(C(F)(F)F)n(C)c4=O)cc23)O1 (stereo partly drawn) [Compound 51, 3-[3-[(4R,6S)-4,6-dimethyl-m-dioxan-2-yl]-1,2-benzisothiazol-5-yl]-1-methyl-6-(trifluoromethyl)uracil] | 9.0 | 9.0 | 2.0 | 6.0 | 7.0 | 8.0 | 9.0 | 9.0 | 9.0 | 9.0 | 9.0 | 9.0 | 9.0 | 9.0 | 9.0 | 8.0 | 8.5 | 9.0 | 9.0 | 9.0 | TRZAWR herbicidal rating ([4]; rate 0.0320 kg/ha): 3.5; TRZAWR herbicidal rating ([4]; rate 0.0620 kg/ha): 4.0 |
| C[C@H]1OC(c2nsc3ccc(-n4c(=O)cc(C(F)(F)F)n(C)c4=O)cc23)O[C@@H]1C [Compound 48, 3-[3-[(4R,5R)-4,5-dimethyl-1,3-dioxolan-2-yl]-1,2-benzisothiazol-5-yl]-1-methyl-6-(trifluoromethyl)uracil] | – | – | – | – | – | – | 9.0 | 9.0 | 9.0 | 9.0 | 9.0 | 9.0 | 6.0 | 8.0 | 8.0 | 7.5 | 8.0 | 9.0 | 9.0 | 9.0 | Postemergence herbicidal rating, AMBEL ([1]; rate 0.0320 kg/ha): 9.0; Postemergence herbicidal rating, AMBEL ([1]; rate 0.0620 kg/ha): 9.0; Postemergence herbicidal rating, CASOB ([2]; rate 0.0320 kg/ha): 1.0; Postemergence herbicidal rating, CASOB ([2]; rate 0.0620 kg/ha): 7.0; Postemergence herbicidal rating, CHEAL ([3]; rate 0.0320 kg/ha): 9.0; Postemergence herbicidal rating, CHEAL ([3]; rate 0.0620 kg/ha): 9.0; Postemergence herbicidal rating, TRZAWR ([4]; rate 0.0320 kg/ha): 5.0; Postemergence herbicidal rating, TRZAWR ([4]; rate 0.0620 kg/ha): 5.7 |
